This is an account of results in patent US20110105457A1, “HETEROCYCLIC COMPOUND HAVING INHIBITORY ACTIVITY ON PI3K” (SHIONOGI & CO., LTD., priority 2008, published 2011).

Series [1] relates to AKT phosphorylation (Ser473) in THP-1 cells. As to the kind of experiment: AKT phosphorylation inhibitory activity in MCP-1 stimulated THP-1 cells (ELISA). As to conditions: MCP-1 stimulation, compound concentration not given. It is filed as cell-based, human. As for the experimental part:
(1) The AKT phosphorylation inhibitory activity of a compound was evaluated according to the following procedure. (2) Human monocyte-like cell line THP-1 was washed with RPMI-1640 media, incubated in the presence of 5% CO2 at 37 degrees Celsius for 3 hours, washed with Hank's balanced salt solution (HBSS), adjusted to a cell concentration of 6.6×10^6/mL, and then used in an experiment. (3) 30 μL of the cell suspension and 60 μL of each compound solution comprising 0.2% DMSO/HBSS are mixed, and then preincubated at 37 degrees Celsius for 5 minutes. 30 μL of HBSS comprising 4 μg/mL of MCP-1 was added thereto, and then incubated for 30 seconds at 37 degrees Celsius. (4) 30 μL of 20 mM Tris-HCl (pH 7.5)/150 mM NaCl/1 mM Na2EDTA/1 mM EGTA/1% Triton/2.5 mM sodium pyrophosphate/1 mM β-glycerophosphate/1 mM Na3VO4/1 μg/ml leupeptin/50 nM APMSF was added thereto to dissolve cells. (5) The amount of AKT phosphorylation in a cell solution was measured by ELISA method. (6) To a micro well plate to which anti-phospho-Akt (Ser473) antibody (clone 193H12, derived from a rabbit) was solid-phased was added 100 μL of a prepared cell solution, incubated for 2 hours at 37 degrees Celsius, and then washed four times with Phosphate Buffered Saline/0.05% Tween-20. (7) An anti-AKT1 antibody (clone 2H10, derived from a mouse) was added thereto, incubated for 1 hour at 37 degrees Celsius, washed similarly, and then reacted with an HRP-labeled anti-mouse IgG antibody. (8) After incubating at 37 degrees Celsius for 30 minutes and then washing similarly, 100 μL of TMB (3,3′,5,5″-tetramethylbenzidine) was added thereto, followed by reacting at room temperature for 30 minutes. (9) 100 μL of 1 mol/L sulfuric acid was added to quench the color reaction, and then the absorbance at 450 nm was measured. (10) A series of diluted cell solutions of a positive control (a sample in the absence of a compound) were used as a calibration curve, the amount of AKT phosphorylation in a sample in the absence of MCP-1 was defined as 0% activity to calculate an inhibition ratio.
Background: In an ELISA, binding on a coated surface is turned into a signal by an enzyme label.

The nature of series [2]: Metabolic stability test, pooled human liver microsome. It is filed as in vitro ADME. As to conditions: human liver microsome 0.5 mg protein/mL, NADPH, 37 degrees Celsius, 30 minutes. The protocol: After a subject compound was reacted for a certain time using a pooled human liver microsome commercially available, a reacted sample and an unreacted sample are compared to calculate a survival ratio, and then the degree of metabolism in the liver was evaluated.
0.2 mL of a buffer solution (50 mmol/L of Tris-HCl in pH 7.4, 150 mmol/L of potassium chloride, and 10 mmol/L of magnesium chloride) containing a human liver microsome of 0.5 mg protein/mL was reacted in the presence of 1 mmol/L NADPH at 37 degrees Celsius for 0 or 30 minutes (oxidative reaction). After reacting, 50 μL of the reaction solution was added to 100 μL of a solution of methanol/acetonitrile (1/1(v/v)), mixed, and then centrifuged at 3000 rpm for 15 minutes. A test compound in the supernatant was quantitated with LC/MS/MS. An amount of the compound remained at a reaction time of 0 minute was defined as 100%, and, based on that, an amount of the test compound remained after the reaction was calculated.
Background: Liver microsomes are vesicles of endoplasmic reticulum, rich in cytochrome P450 enzymes.

The next series addresses PI-3 kinase γ (Homo sapiens, UniProt P48736). As to the kind of experiment: PI3Kγ inhibitory activity, PI3-kinase HTRF assay (Millipore). It is filed as biochemical. As to conditions: 0.5 h; compound 50 μM; read-out: Inhibition ratio % (50 μM). The essentials:
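HTRF assay: PI3Kγ preincubated 10 min with compound and PIP2 substrate in MgCl2/DTT buffer, then reaction started with ATP and run 30 min at room temperature before EDTA/biotin-PIP3 quench. Read after 18 h with Eu anti-GST/GST-PH domain/APC-streptavidin as 665/620 nm ratio; inhibition relative to no-compound (100%) and no-enzyme (0%) wells.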
(In general: In TR-FRET formats the signal depends on donor and acceptor labels being close together.)

The next series is described as follows: Solubility test. In kind it is physicochemical. As to conditions: 25 °C, fassgf or other biorelevant, kinetic from dmso stock, artificial intestinal juice pH 6.8, 1% DMSO, 25 degrees Celsius. As for the experimental part:
10 mM compound solution was prepared using DMSO, and then 6 μL of the compound solution was added to 594 μL of artificial intestinal juice in pH 6.8 (to 250 mL of 0.2 mol/L potassium dihydrogen phosphate reagent solution was added 118 mL of 0.2 mol/L NaOH reagent solution and water to provide a final volume of 1000 mL). After standing at 25 degrees Celsius for 16 hours, the mixed solution was filtrated with suction. The filtrate was diluted twice with methanol/water (1/1), and then a concentration in the filtration was measured with HPLC or LC/MS/MS by the absolute calibration method.

Series [3] concerns the target T1, human ether-a-go-go related gene (hERG) channel (Homo sapiens, UniProt Q12809).
T1 construct: expressed in transfected cells; host or cells: HEK293
Briefly: hERG test, whole-cell patch-clamp in HEK293 cells. It is filed as cell-based. Particulars: HEK293 cells expressing hERG; concentration not given. The text has this: For the purpose of a risk evaluation of QT interval extension of electrocardiogram, using the HEK293 cell that was made express human ether-a-go-go related gene (hERG) channel, the activity on delayed rectification K^+ current (IKr) playing an important role in a cardiac ventricle repolarization process was examined.
Using an automatic patch-clamp system (PatchXpress 7000A, Axon Instruments Inc.), by a whole-cell patch-clamp method, after the cell was maintained at a membrane potential of −80 mV, IKr induced on giving depolarizing stimulation of +50 mV for 2 seconds and further repolarizing stimulation of −50 mV for 2 seconds was recorded. After generated current became stable, extracellular fluid (NaCl: 137 mmol/L, KCl: 4 mmol/L, CaCl2.2H2O: 1.8 mmol/L, MgCl2.6H2O: 1 mmol/L, glucose: 10 mmol/L, HEPES (4-(2-hydroxyethyl)-1-piperazineethanesulfonic acid): 10 mmol/L, pH=7.4) dissolving a test substance at an intended concentration was applied to the cell for 10 minutes under room temperature condition. From the IKr obtained, using an analysis soft (DataXpress ver. 1, Molecular Devices Corporation), a current value in a membrane potential maintained was used as a standard, and the absolute value of the maximum tail current was measured. Moreover, an inhibition ratio for the maximum tail current prior to the application of the test substance was calculated, and then compared with a group of media-application (0.1% dimethylsulfoxide solution) to evaluate influence of the test substance on IKr.

Where only a bound is given, the exact number is not on record here.

Chain of PI-3 kinase γ (P48736 whole entry, the tested form may be a part): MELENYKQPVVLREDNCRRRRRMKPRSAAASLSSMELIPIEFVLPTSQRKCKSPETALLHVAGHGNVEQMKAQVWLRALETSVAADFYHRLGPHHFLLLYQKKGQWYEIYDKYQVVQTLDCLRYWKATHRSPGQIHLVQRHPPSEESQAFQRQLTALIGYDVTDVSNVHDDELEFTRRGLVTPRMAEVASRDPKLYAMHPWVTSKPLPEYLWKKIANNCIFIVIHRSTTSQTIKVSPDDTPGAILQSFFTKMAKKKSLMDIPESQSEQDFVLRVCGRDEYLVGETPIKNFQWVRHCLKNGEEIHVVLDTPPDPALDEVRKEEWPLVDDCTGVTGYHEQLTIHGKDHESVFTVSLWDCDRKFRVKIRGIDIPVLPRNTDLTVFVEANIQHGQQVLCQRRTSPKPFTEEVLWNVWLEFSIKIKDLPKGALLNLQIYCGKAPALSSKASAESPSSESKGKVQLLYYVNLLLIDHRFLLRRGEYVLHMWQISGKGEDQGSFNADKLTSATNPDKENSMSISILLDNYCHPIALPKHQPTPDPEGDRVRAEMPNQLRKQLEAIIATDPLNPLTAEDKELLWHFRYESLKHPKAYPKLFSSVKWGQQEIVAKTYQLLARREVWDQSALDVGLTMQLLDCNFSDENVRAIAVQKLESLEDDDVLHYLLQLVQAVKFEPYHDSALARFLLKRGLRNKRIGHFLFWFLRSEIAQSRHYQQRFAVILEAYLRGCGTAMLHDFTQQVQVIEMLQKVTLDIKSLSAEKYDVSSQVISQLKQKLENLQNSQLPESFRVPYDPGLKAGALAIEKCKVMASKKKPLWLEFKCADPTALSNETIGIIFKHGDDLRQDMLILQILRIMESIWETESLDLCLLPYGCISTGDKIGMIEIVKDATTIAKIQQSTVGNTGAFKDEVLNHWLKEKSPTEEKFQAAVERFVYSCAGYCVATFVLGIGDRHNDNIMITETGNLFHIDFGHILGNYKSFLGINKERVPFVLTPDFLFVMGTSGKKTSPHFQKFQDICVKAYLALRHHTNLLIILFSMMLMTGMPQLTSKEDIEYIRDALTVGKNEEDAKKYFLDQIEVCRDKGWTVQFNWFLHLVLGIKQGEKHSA
T1 sequence (Q12809 whole entry): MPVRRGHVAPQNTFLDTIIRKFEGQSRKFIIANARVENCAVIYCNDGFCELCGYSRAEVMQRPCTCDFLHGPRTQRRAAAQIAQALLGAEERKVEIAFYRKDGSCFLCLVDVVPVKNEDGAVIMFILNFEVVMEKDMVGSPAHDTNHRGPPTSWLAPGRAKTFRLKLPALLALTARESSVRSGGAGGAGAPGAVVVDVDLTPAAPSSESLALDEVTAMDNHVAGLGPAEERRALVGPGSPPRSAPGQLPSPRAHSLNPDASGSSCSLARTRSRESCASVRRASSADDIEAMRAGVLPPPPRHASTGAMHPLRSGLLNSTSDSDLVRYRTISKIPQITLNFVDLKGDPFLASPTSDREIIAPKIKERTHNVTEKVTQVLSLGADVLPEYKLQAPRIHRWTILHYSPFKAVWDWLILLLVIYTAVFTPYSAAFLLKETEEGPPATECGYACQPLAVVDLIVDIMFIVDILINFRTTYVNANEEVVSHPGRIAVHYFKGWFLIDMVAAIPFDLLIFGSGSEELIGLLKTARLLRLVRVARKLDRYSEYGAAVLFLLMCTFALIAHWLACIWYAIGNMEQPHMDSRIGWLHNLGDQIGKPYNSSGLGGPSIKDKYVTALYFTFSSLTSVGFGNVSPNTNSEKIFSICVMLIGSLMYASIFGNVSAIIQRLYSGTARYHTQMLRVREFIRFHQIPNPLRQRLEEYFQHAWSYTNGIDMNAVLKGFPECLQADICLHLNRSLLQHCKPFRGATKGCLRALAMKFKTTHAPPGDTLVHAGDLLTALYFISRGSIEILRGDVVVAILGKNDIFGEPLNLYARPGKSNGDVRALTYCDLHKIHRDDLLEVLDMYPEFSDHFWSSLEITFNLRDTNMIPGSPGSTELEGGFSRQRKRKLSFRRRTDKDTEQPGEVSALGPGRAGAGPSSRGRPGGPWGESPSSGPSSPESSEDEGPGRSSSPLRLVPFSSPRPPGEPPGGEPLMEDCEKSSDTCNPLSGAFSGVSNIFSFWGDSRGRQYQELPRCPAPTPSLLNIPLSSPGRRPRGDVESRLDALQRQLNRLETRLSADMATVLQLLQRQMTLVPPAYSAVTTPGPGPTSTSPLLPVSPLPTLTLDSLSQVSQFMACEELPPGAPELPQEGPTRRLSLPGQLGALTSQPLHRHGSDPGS

The term solubility denotes how much of the substance goes into solution per volume. Read a low solubility as little dissolved substance. In the case of `CNC(=O)Nc1cn2nc(-c3cccnc3)ccc2n1` [Compound I-37], the “AKT phosphorylation inhibition ratio” value in series [1] is recorded as 86.7%. Besides, in series [2], the “Amount of the test compound remained after the reaction” value was 96.8%. At PI-3 kinase γ, the inhibition at 50 µM turned out to be 86%. For the same compound, the solubility at 16 h in the series “Solubility test” was over 50 µM.

In the case of `CCNC(=O)Nc1cn2nc(-c3cccc(OC)c3)ccc2n1` [Compound I-119], the “AKT phosphorylation inhibition ratio” value in series [1] turned out to be 92.9%. Besides, the inhibition at 50 µM at PI-3 kinase γ came to 96%.

`CNC(=O)Nc1cn2nc(-c3cccc(C(=O)N4CCCC4)c3)ccc2n1` [Compound I-137]: the “Inhibition ratio for the maximum tail current (IKr)” value (from here on “Inhibition ratio … (IKr)”) in series [3] amounted to 8.4%. Moreover, the inhibition at 50 µM on PI-3 kinase γ was found to be 81%.

Take `CNC(=O)Nc1cn2nc(-c3cccc(N(C)C)c3)ccc2n1` [Compound I-143]: the “Inhibition ratio … (IKr)” value in series [3] is 7.8%. The inhibition at 50 µM at PI-3 kinase γ stood at 102%.

Consider `CCC(C)C(=O)Nc1cn2nc(-c3cccc(OC)c3)ccc2n1` (centres unmarked) [Compound I-182], for which the “Inhibition ratio … (IKr)” value in series [3] was determined as 9.3%. Moreover, the inhibition at 50 µM at PI-3 kinase γ amounted to 98%.

On to `CCOC(=O)c1nc[nH]c1C(=O)Nc1cn2nc(-c3cccc(OC)c3)ccc2n1` [Compound I-208], for which the “Inhibition ratio … (IKr)” value in series [3] is reported as 0.5%.

In the case of `COc1cccc(-c2ccc3nc(NC(=O)NCC(=O)OC(C)(C)C)cn3n2)c1` [Compound I-248], the “Inhibition ratio … (IKr)” value in series [3] was determined as 6.7%. For the same compound, the inhibition at 50 µM at PI-3 kinase γ came to 71%.

As to `COc1cccc(-c2ccc3nc(NC(=O)NCCCS(=O)(=O)c4ccccc4)cn3n2)c1` [Compound I-266], the “AKT phosphorylation inhibition ratio” value in series [1] was determined as 90.1%.

Regarding `COc1cccc(-c2ccc3nc(NC(=O)NO)cn3n2)c1` [Compound I-274], the “AKT phosphorylation inhibition ratio” value in series [1] came to 82.6%. Further, the inhibition at 50 µM on PI-3 kinase γ amounted to 88%.

On to `CNC(=O)Nc1cn2nc(C(=O)c3ccccc3)ccc2n1` [Compound I-280], for which the “Inhibition ratio … (IKr)” value in series [3] is recorded as 5.8%. The inhibition at 50 µM on PI-3 kinase γ was determined as 92%.
